Assays:
MtuATP-PRT [1] = molecular target: T1, MtuATP-PRT (Mycobacterium tuberculosis, UniProt P9WMN1)
MtuATP-PRT [2] = molecular target: T1, MtuATP-PRT; assay: competitive kinetic isotope effects, scintillation counting; assay type: biochemical; details: reverse reaction; co-substrate PRATP; alternative to pyrophosphate

T1 sequence (P9WMN1 whole entry): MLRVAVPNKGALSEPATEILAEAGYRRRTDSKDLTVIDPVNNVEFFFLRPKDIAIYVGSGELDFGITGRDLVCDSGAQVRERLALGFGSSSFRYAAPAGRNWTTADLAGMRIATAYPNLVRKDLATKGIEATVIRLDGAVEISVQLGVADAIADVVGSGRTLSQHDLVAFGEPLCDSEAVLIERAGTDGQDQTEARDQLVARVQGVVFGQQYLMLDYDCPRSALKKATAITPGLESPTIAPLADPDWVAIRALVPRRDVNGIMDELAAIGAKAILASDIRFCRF

| SMILES | X-ray crystal structure (co-crystallisation) (MtuATP-PRT [1]) | competitive kinetic isotope effects, scintillation counting (MtuATP-PRT [2]) |
| --- | --- | --- |
| Nc1ncnc2c1ncn2[C@@H]1O[C@H](COP(=O)(O)OP(=O)(O)OP(=O)(O)O)[C@@H](O)[C@H]1O [ATP] | a structure with ATP bound to MtuATP-PRT (PDB: 5U99) was obtained |  |
| O=C(O)CP(=O)(O)O [phosphonoacetic acid] |  | the ATP-PRT catalyzed reaction was studied using phosphonoacetic acid (PA) as an alternative |
